Test results taken from patent US8536160B2, “Azaheterocyclyl derivatives of androstanes and androstenes as medicaments for cardiovascular disorders” (priority 2006, dated 2013).
Counter-ions that a name gives are not always drawn. Like-named read-outs stand apart in the source and are kept apart here.

Assays:
[1] = system: anesthetized guinea-pig; assay: Inotropic effect and lethal dose, slow intravenous infusion in anesthetized guinea-pig; type: in vivo; parameters: Maximum dose infused: unit not given here; details: for Emax / ED80 / ED (max): Cavia porcellus, iv, 1.5 h; for Emax / ED80 / ED (max) / Dead/treated / Maximum dose infused: slow i.v. infusion over 90 minutes; for Emax / ED80 / ED (max) / % decrease from Emax after 20 min from the end of the infusion / Dead/treated: anesthetized guinea-pig; for Emax: maximum increase in contractile force, read-out: Emax % increase in +dP/dTmax; for ED80: read-out: ED80 (inotropic potency, dose increasing +dP/dTmax by 80%); for ED (max): read-out: EDmax (dose inducing maximum positive inotropic effect); for % decrease from Emax after 20 min from the end of the infusion: duration of the inotropic effect; for Maximum dose infused: maximum dose infused in the survived animals
[2] = target: Dog Kidney Na+, K+-ATPase (Canis lupus familiaris, UniProt P50997); assay: Inhibition of the enzymatic activity of purified Na+,K+-ATPase (hydrolysis of 32P-ATP); type: biochemical
[3] = dog kidney enzyme, hydrolysis of 32P-ATP in presence and absence of compound, read-out: Na+, K+-ATPase Inhibition IC50
[4] = read-out: Na+, K+-ATPase Inhibition IC50

`CC12CCC3C(CC(=O)C4CC(=NOC5CCNC5)CCC43C)C1CCC2=O` (mixture of isomers) [I-ae, (E,Z) 3-[3-(R)-Pyrrolidinyl]oxyiminoandrostane-6,17-dione hydrochloride] gave an Emax [1] of 147%, an ED80 [1] of 2.28 µmol/kg and an ED (max) [1] of 4.26 µmol/kg. The “% decrease from Emax after 20 min from the end of the infusion” value (“% decrease from Emax after 20 min” below) [1] was 74%, the Dead/treated [1] was 0/3 and the Maximum dose infused [1] was 6.4. It also gave an IC50 ([2]; Na+, K+-ATPase Inhibition IC50) of 26 nM.
`COC(=O)C1CC2C3CCC(=O)C3(C)CCC2C2(C)CCC(=NOC3CCNC3)CC12` (mixture of isomers) [I-au, (Z,E) 3-(3-(R)-Pyrrolidinyloxyimino)-6α-methoxycarbonylandrostane-17-one hydrochloride] showed an Emax [1] of 164%, an ED80 [1] of 11 µmol/kg and an ED (max) [1] of 23.3 µmol/kg. The “% decrease from Emax after 20 min” value [1] was 58%, the Dead/treated [1] was 0/4 and the Maximum dose infused [1] was 50.3. It also gave an IC50 [2, 3] of 160 nM.
`CC12CCC3C(CC(=C(F)F)C4CC(=NOC5CCNC5)CCC43C)C1CCC2=O` (mixture of isomers) [I-az, (E,Z) 3-[3-(R)-Pyrrolidinyl]oxyimino-6-difluoromethyleneandrostan-17-one hydrochloride] gave an Emax [1] of 244%, an ED80 [1] of 6.69 µmol/kg and an ED (max) [1] of 18.4 µmol/kg. For the same molecule, the “% decrease from Emax after 20 min” value [1] was 20%, the Dead/treated [1] was 0/3 and the Maximum dose infused [1] was 25.2. It also gave an IC50 ([2]; Na+, K+-ATPase Inhibition IC50) of 21 nM.
Molecule `CON=C1CC2C3CCC(=O)C3(C)CCC2C2(C)CCC(=NOC3CCNC3)CC12` (single isomer, unassigned) [I-bd, hydrochloride] has an IC50 ([2]; Na+, K+-ATPase Inhibition IC50) of 18 nM.
`CON=C1CC2C3CCC(=O)C3(C)CCC2C2(C)CCC(=NOC3CCNC3)CC12O` (single isomer, unassigned) [I-bv] showed an IC50 [2, 3] of 150 nM.
`CON=C1CC2C3CCC(=O)C3(C)CCC2C2(C)CCC(=NOC3CCN(C)C3)CC12O` (single isomer, unassigned) [I-ca] gave an IC50 [2, 3] of 6000 nM.
With `CC12CCC3C(C(=O)CC4CC(=NOC5CCNC5)CCC43C)C1CCC2=O` (single isomer, unassigned) [I-cb] the IC50 ([2]; Na+, K+-ATPase Inhibition IC50) was 89 nM.
`CC12CCC3C(C(=O)CC4CC(=NOC5CCNC5)CCC43C)C1CCC2=O` (single isomer, unassigned) [I-cc] was tested, and the IC50 ([2]; Na+, K+-ATPase Inhibition IC50) was 570 nM.
In the case of `CC12CCC3C(C(O)C(CO)C4CC(=NOC5CCNC5)CCC43C)C1CCC2=O` (single isomer, unassigned) [I-dl, hydrochloride], the IC50 ([2]; Na+, K+-ATPase Inhibition IC50) is reported as 170 nM.
With `C[C@]12CC/C(=N\OC3CCNCC3)CC1C(=O)C[C@@H]1[C@@H]2CC[C@]2(C)C(=O)CC[C@@H]12` (stereo partly shown) [I-aa, (E) 3-(4-Piperidyl)oxyiminoandrostane-6,17-dione hydrochloride] the IC50 ([2]; Na+, K+-ATPase Inhibition IC50) was 4100 nM.
With `C[C@H]1C[C@@H]2[C@H](CC[C@]3(C)C(=O)CC[C@@H]23)[C@@]2(C)CC/C(=N\O[C@@H]3CCNC3)CC12` (stereo partly drawn) [I-aw, (E) 3-[3-(R)-Pyrrolidinyl]oxyimino-6α-methylandrostane-17-one fumarate] the IC50 ([2]; Na+, K+-ATPase Inhibition IC50) was 340 nM.
`C[C@H]1C[C@@H]2[C@H](CC[C@]3(C)C(=O)CC[C@@H]23)[C@@]2(C)CC/C(=N/O[C@@H]3CCNC3)CC12` (stereo partly drawn) [I-ax, (Z) 3-[3-(R)-Pyrrolidinyl]oxyimino-6α-methylandrostane-17-one hydrochloride] was tested, and the IC50 ([2]; Na+, K+-ATPase Inhibition IC50) was 260 nM.
Molecule `C=C1C[C@H]2[C@@H]3CCC(=O)[C@@]3(C)CC[C@@H]2[C@@]2(C)CC/C(=N/O[C@H]3CCNC3)C[C@]12O` [I-bi, (Z) 3-[3′-(S)-Pyrrolidinyl]oxyimino-5α-hydroxy-6-methyleneandrostane-17-one fumarate] has an IC50 ([2]; Na+, K+-ATPase Inhibition IC50) of 6000 nM.
`C=C1C[C@H]2[C@@H]3CCC(=O)[C@@]3(C)CC[C@@H]2[C@@]2(C)CC/C(=N\O[C@H]3CCNC3)C[C@]12O` [I-bj, (E) 3-[3′-(S)-Pyrrolidinyl]oxyimino-5α-hydroxy-6-methyleneandrostane-17-one fumarate] showed an IC50 ([2]; Na+, K+-ATPase Inhibition IC50) of 480 nM.
In the case of `C=C1C[C@H]2[C@@H]3CCC(=O)[C@@]3(C)CC[C@@H]2[C@@]2(C)CC/C(=N/O[C@@H]3CCN(C)C3)C[C@]12O` [I-bl, (Z) 3-[3′-(R)-(1-Methyl)pyrrolidinyl]oxyimino-5α-hydroxy-6-methyleneandrostane-17-one fumarate], the IC50 ([2]; Na+, K+-ATPase Inhibition IC50) is reported as 92000 nM.
`C=C1C[C@H]2[C@@H]3CCC(=O)[C@@]3(C)CC[C@@H]2[C@@]2(C)CC/C(=N\O[C@@H]3CCN(C)C3)C[C@]12O` [I-bm, (E) 3-[3′-(R)-(1-Methyl)-pyrrolidinyl]oxyimino-5α-hydroxy-6-methyleneandrostane-17-one fumarate] showed an IC50 [2, 4] of 1400 nM.
Molecule `C=C1C[C@H]2[C@@H]3CCC(=O)[C@@]3(C)CC[C@@H]2[C@@]2(C)CC/C(=N/O[C@H]3CCN(C)C3)C[C@]12O` [I-bn, (Z) 3-[3′-(S)-(1-Methyl)pyrrolidinyl]oxyimino)-5α-hydroxy-6-methyleneandrostane-17-one fumarate] has an IC50 ([2]; Na+, K+-ATPase Inhibition IC50) of 95000 nM.
`C=C1C[C@H]2[C@@H]3CCC(=O)[C@@]3(C)CC[C@@H]2[C@@]2(C)CC/C(=N\O[C@H]3CCN(C)C3)C[C@]12O` [I-bo, (E) 3-[3′-(S)-(1-Methyl)pyrrolidinyl]oxyimino)-5α-hydroxy-6-methyleneandrostane-17-one fumarate] gave an IC50 ([2]; Na+, K+-ATPase Inhibition IC50) of 21000 nM.
`CO/N=C1\C[C@H]2[C@@H]3CCC(=O)[C@@]3(C)CC[C@@H]2[C@@]2(C)CC/C(=N/O[C@H]3CCN(C)C3)C[C@]12O` [I-bx, (Z) 3-[3′-(S)-(1-Methyl)pyrrolidinyl]oxyimino)-5α-hydroxy-6-(E)-methoxyiminoandrostane-17-one fumarate] showed an IC50 [2, 3] of 96000 nM.
`CO/N=C1\C[C@H]2[C@@H]3CCC(=O)[C@@]3(C)CC[C@@H]2[C@@]2(C)CC/C(=N\O[C@H]3CCN(C)C3)C[C@]12O` [I-by, (E) 3-[3′(S)-(1-Methyl)-pyrrolidinyl]oxyimino)-5α-hydroxy-6-(E)-methoxyiminoandrostane-17-one fumarate] was tested, and the IC50 [2, 3] was 12000 nM.
With `CO/N=C1\C[C@H]2[C@@H]3CCC(=O)[C@@]3(C)CC[C@@H]2[C@@]2(C)CC/C(=N/O[C@@H]3CCN(C)C3)C[C@]12O` [I-bz, (Z) 3-[3′-(R)-(1-Methyl)pyrrolidinyl]oxyimino)-5α-hydroxy-6-(E)-methoxyiminoandrostane-17-one fumarate] the IC50 [2, 3] was 94000 nM.
`C[C@@H]1CC2CC(=NO[C@@H]3CCNC3)CC[C@]2(C)[C@H]2CC[C@]3(C)C(=O)CC[C@H]3[C@H]12` (stereo partly drawn) [I-ck, (E,Z) 3-[3′-(R)-Pyrrolidinyl]oxyimino-7α-methylandrostane-17-one hydrochloride] was tested, and the IC50 [2, 4] was 210 nM.
`CC1CC2CC(=NOC3CCNC3)CCC2(C)C2CCC3(C)C(=O)CCC3C12` [I-cm, (E) 3-[3′-(R)-Pyrrolidinyl]oxyimino-7β-methylandrostane-17-one hydrochloride] was tested, and the IC50 ([2]; Na+, K+-ATPase Inhibition IC50) was 140 nM.
Molecule `CC1CC2CC(=NOC3CCNC3)CCC2(C)C2CCC3(C)C(=O)CCC3C12` [I-cn, (Z) 3-[3′-(R)-Pyrrolidinyl]oxyimino-7β-methylandrostane-17-one hydrochloride] has an IC50 ([2]; Na+, K+-ATPase Inhibition IC50) of 340 nM.
`COC(=O)[C@@H]1CC2C/C(=N/O[C@@H]3CCNC3)CC[C@]2(C)[C@H]2CC[C@]3(C)C(=O)CC[C@H]3[C@H]12` (stereo partly drawn) [I-cq, (E) 3-[3′-(R)-Pyrrolidinyl]oxyimino-7α-methoxycarbonylandrostane-17-one hydrochloride] showed an IC50 [2, 4] of 960 nM.
With `CN1CC[C@H](O/N=C2\CC[C@@]3(C)C(C2)[C@@H](CO)C(=O)[C@@H]2[C@@H]3CC[C@]3(C)C(=O)CC[C@@H]23)C1` (stereo partly drawn) [I-cu, (E,Z) 3-[3′-(S)-(1-Methyl)-pyrrolidinyl]oxyimino-6α-hydroxymethylandrostane-7,17-dione fumarate] the IC50 [2, 4] was 2600 nM.
For `C[C@]12CC[C@H](OC(=O)C3CCNCC3)CC1C(=O)C[C@@H]1[C@@H]2CC[C@]2(C)C(=O)CC[C@@H]12` (stereo partly drawn) [I-cw, 3β-(4-Piperidinylcarbonyloxy)androstane-6,17-dione hydrochloride], the IC50 ([2]; Na+, K+-ATPase Inhibition IC50) was 11000 nM.
In the case of `C[C@]12CC[C@H](OC(=O)C3CNC3)CC1C(=O)C[C@@H]1[C@@H]2CC[C@]2(C)C(=O)CC[C@@H]12` (stereo partly drawn) [I-cx, 3β-(3-Azetidincarbonyloxy)androstane-6,17-dione hydrochloride], the IC50 ([2]; Na+, K+-ATPase Inhibition IC50) is reported as 4200 nM.
In the case of `C[C@]12CC[C@@H](/C=C\[C@@H]3CCNC3)CC1C(=O)C[C@@H]1[C@@H]2CC[C@]2(C)C(=O)CC[C@@H]12` (stereo partly drawn) [I-de, 3α-[2-(Pyrrolidin-3-(S)-yl)-(Z)-vinyl]androstane-6,17-dione formate], the IC50 ([2]; Na+, K+-ATPase Inhibition IC50) is reported as 390 nM.
With `CC12CCC3C(CC(=O)C4CC(C=CC5CCNCC5)CCC43C)C1CCC2=O` (stereo not drawn) [I-dg, 3α-[2-(Pyperidin-4-yl)-(Z)-vinyl]androstane-6,17-dione formate] the IC50 [2, 3] was 890 nM.
Molecule `C[C@]12CC/C(=N/O[C@H]3CCNC3)CC1[C@@H](CO)C(=O)[C@@H]1[C@@H]2CC[C@]2(C)C(=O)CC[C@@H]12` (stereo partly drawn) [I-di, (Z)-3-[3-(S)-Pyrrolidinyl)oxyimino]-6α-hydroxymethylandrostane-7,17-dione fumarate] has an IC50 ([2]; Na+, K+-ATPase Inhibition IC50) of 210 nM.
Molecule `C[C@]12CC/C(=N\O[C@H]3CCNC3)CC1[C@@H](CO)C(=O)[C@@H]1[C@@H]2CC[C@]2(C)C(=O)CC[C@@H]12` (stereo partly drawn) [I-dj, (E)-3-[3-(S)-Pyrrolidinyl)oxyimino]-6α-hydroxymethylandrostane-7,17-dione fumarate] has an IC50 ([2]; Na+, K+-ATPase Inhibition IC50, dog kidney enzyme, hydrolysis of 32P-ATP in presence and absence of compound) of 36 nM.
With `C[C@]12CCC(=NO[C@H]3CCNC3)C=C1/C(=N/O)C[C@@H]1[C@@H]2CC[C@]2(C)C(=O)CC[C@@H]12` [I-dv, (E,Z) 3-[3-(S)-Pyrrolidinyl]oxyimino-6-(E)-hydroxyiminoandrost-4-ene-17-one fumarate] the IC50 [2, 4] was 220 nM.
“(E) 3-[3-(R)-Pyrrolidinyl]oxyiminoandrostane-6,7-dione hydrochloride [I-af]” was tested, and the IC50 [2, 4] was 16 nM.
